Laboratory results from patent US4775692A, “2,5,6,7-tetranor-4,8-inter-m-phenylene PGI2 derivatives” (Toray Industries, Inc., priority 1986, dated 1988).
In brackets after ≈: the same amount, converted by molar mass. Where two headings read alike, the source gives them in different places.

Columns and labels:
gastric acid secretion [1] = test: Inhibiting effect of gastric acid secretion, perfused stomach, pentagastrin-stimulated (Ghosh & Schild); format: in vivo, male SD rat; conditions: urethane-anesthetized SD rat, pentagastrin 0.05 μg/kg/min, injected through femoral vein; ratio of area index to that of PGE2
Experimental: (§1) Inhibiting effect of gastric acid secretion
A male SD rat was incised in the abdomen under anesthesia by urethane and the lumen of a stomach was perfused with a physiolosical saline solution through a double-cannula inserted into a lumen of the stomach. A pH of a draining gastric acid was monitored using a pH-meter (M. Ghosh, H. Schild, Br. J. Pharmacol. 13, 54 (1958)). The secretion of gastric acid was stimulated by a continuous infusion of the pentagastrin at a rate of 0.05 μg/kg/min. When the pH of gastric acid became stable value of about 4, the compound was injected through a femoral vein. As an index of the inhibiting effect of gastric acid secretion by the compound was calculated from the area surrounded by the curve drawn by the time course of the pH of gastric acid, from the point increase by the injection of the compound and to the point it came back to baseline. The index thus obtained was compared to that of PGE2 and a ratio therebetween was shown in Table 3, as a relative effect of the compound.

corpus of stomach = test: Gastric cytoprotection effect (lesion length / ulcer index after oral 0.2N NaOH); format: in vivo; conditions: 1 h, 30 min before oral 0.2N NaOH, lesion measured one hour later, read-out: Gastric cytoprotection effect ED50 (dose reducing the sore to 50% of control)
Description: Gastric cytoprotection effect
Gastric cytoprotection effect was studied according to the method by A. Robert (Gastroenterology, 77(3), 443, (1979)). Thirty min. after oral administration of the compound according to the invention, 0.2N NaOH was orally applied to the animals.
One hour later, the animals were killed under anesthesia by chloroform. The stomach was removed and fixed in a solution of 5% formalin. After fixation, the stomach was cut along the greater curvature. A total length of the lesion appearing on the corpus of stomach was then measured and served as an ulcer index.
The dose of the compound which may reduce the sore to 50% of that of the control was designated as ED50.
The gastric cytoprotection effects of the compounds according to the invention, which is thus represented by ED50, are summarized in Table 1.

gastric acid secretion [2] = test: Inhibiting effect of gastric acid secretion, pylorus-ligated rat (Shay); format: in vivo; conditions: pylorus ligation, injected into duodenum, 5 hours
Experimental: as §1
Under anesthesia by ether, the abdomen of the rat was incised in its median and a pylorus was ligated with silk thread according to Shay (Gastroenterology 5, 43 (1945)). Simultaneously, the compound was injected into a duodenum of the rat and then the incision was closed.
Five hours later, the median-incision of the abdomen was again performed and the esophargus was ligated and then the whole stomach was removed.
The stomach was cut along a greater curvature and the contents thereof was transferred into a graduated centrifuge tube. After centrifugation at 3,000 rpm for 10 min., a volume of a gastric juice was measured and a part of its supernatant was titrated to pH 7 with 0.1N NaOH using a pH-stat (Radio meter).
The mean dose of the compounds which may reduce the volume of gastric juice (ml) and acidity (mEq/ml) of a group of five animals to 50% of that of the controls were designated respectively as ED50.

[3] = tested on: blood pressure of the carotid; test: Hypotensive effect (carotid blood pressure, anesthetized rat); format: in vivo; conditions: chloralose-anesthetized Wistar male rat, injected via catheter connected to femoral artery; read-out: Hypotensive effect ED25 (dose reducing blood pressure by 25 mmHg)
Experimental: A catheter was inserted to a carotid of the Wistar male rat under chloralose anesthesia. Another end of the catheter was connected to a polygraph with a pressure-transducer to detect a blood pressure of the carotid. The compound was injected via catheter connected to a femoral artery. The dose of the compound which may reduce the blood pressure in an amount of 25 mmHg was designated as ED25.

platelet aggregation [4] = test: Inhibiting effect of platelet aggregation (ADP-induced, human platelet-rich plasma); format: cell-based; conditions: human PRP, compound added one minute before ADP
Experimental: Inhibiting effect of platelet aggregation
The blood taken from a human median cubital vein was centrifuged at 800 rpm for 10 min. and a supernatant thereof was used as a platelet-rich plasma (PRP). An aliquot of PRP thus obtained was put into a small tube, to which […] (ADP) was added to induce platelet aggregation. The extent of aggregation was determined by detecting a change in turbidity of the aliquot by an apparatus for measuring platelet aggregation (Rika-Denki, Tokyo). The compound was added one minute before the addition of ADP. The concentration of the compound which may reduce the platelet aggregation, 50% of the control was designated as IC50.

[5] = cited from earlier work
peripheral blood vessel = conditions: cited from earlier work
gastric acid secretion [6] = conditions: cited from earlier work
[7] = converted to 6-oxo PGF1α; cited from earlier work
platelet aggregation [8] = conditions: cited from earlier work
[9] = acidity (mEq/ml) to 50% of controls, read-out: Inhibiting effect of gastric acid secretion ED50, Acidity
[10] = volume (ml) to 50% of controls, read-out: Inhibiting effect of gastric acid secretion ED50, Volume of the gastric juice

| SMILES | Inhibiting effect of gastric acid secretion, Relative effect (PGE2 = 1) (gastric acid secretion [1]) | ED50 (corpus of stomach) [µg/kg] | ED50 (gastric acid secretion [2]; [9]) [µg/kg] | ED50 (gastric acid secretion [2]; [10]) [µg/kg] | ED (25 mmHg) [3] [µg/kg] | IC50 (platelet aggregation [4]) [ng/mL] | duration of physiological activities in vivo [5] | stability in vivo [5] | peripheral blood vessel-dilating activity (peripheral blood vessel) | gastric acid secretion-inhibiting activity (gastric acid secretion [6]) | stability in neutral aqueous solutions [7] | platelet aggregation-inhibiting activity (platelet aggregation [8]) |
| --- | --- | --- | --- | --- | --- | --- | --- | --- | --- | --- | --- | --- |
| O=C(O)COc1cccc2c1O[C@H]1C[C@@H](O)[C@H](/C=C/[C@@H](O)CCC3CCCCC3)[C@@H]21 (relative stereo) [Compound 244, 17-cyclohexyl-2,5,6,7,18,19,20-heptanor-4-oxa-4,8-inter-m-phenylene PGI2] | 3.9 | 8.52 | > 10000 | 3500 | 0.47 | 28 (≈ 67.2 nM) |  |  |  |  |  |  |
| O=C(O)COc1cccc2c1O[C@H]1C[C@@H](O)[C@H](/C=C/[C@@H](O)c3ccccc3)[C@@H]21 (relative stereo) [Compound 256, 15-phenyl-2,5,6,7,16,17,18,19,20-nonanor-4-oxa-4,8-inter-m-phenylene PGI2] | 7.8 | 3.2 | 110 | 44 | 0.1 | 0.088 (≈ 0.23 nM) |  |  |  |  |  |  |
| O=C(O)COc1cccc2c1O[C@H]1C[C@@H](O)[C@H](/C=C/[C@@H](O)Cc3ccccc3)[C@@H]21 (relative stereo) [Compound 260, 16-phenyl-2,5,6,7,17,18,19,20-octanor-4-oxa-4,8-inter-m-phenylene PGI2] | 13 | 51.4 | 4500 | 5200 | 0.98 | 3.5 (≈ 8.83 nM) |  |  |  |  |  |  |
| O=C(O)COc1cccc2c1O[C@H]1C[C@@H](O)[C@H](/C=C/[C@@H](O)CCc3ccccc3)[C@@H]21 (relative stereo) [Compound 263, 17-phenyl-2,5,6,7,18,19,20-heptanor-4-oxa-4,8-inter-m-phenylene PGI2] | 42 | 13.7 | 1300 | 580 | 0.23 | 3.4 (≈ 8.28 nM) |  |  |  |  |  |  |
| O=C(O)COc1cccc2c1O[C@H]1C[C@@H](O)[C@H](/C=C/[C@@H](O)c3cccc(F)c3)[C@@H]21 (relative stereo) [Compound 274, 15-(m-fluorophenyl)-2,5,6,7,16,17,18,19,20-nonanor-4-oxa-4,8-inter-m-phenylene PGI2] | 12 | 9.6 | 880 | 260 | 0.053 | 1.35 (≈ 3.37 nM) |  |  |  |  |  |  |
| O=C(O)COc1cccc2c1O[C@H]1C[C@@H](O)[C@H](/C=C/[C@@H](O)c3cccc(C(F)(F)F)c3)[C@@H]21 (relative stereo) [Compound 278, 15-(m-trifluoromethylphenyl)-2,5,6,7,16,17,18,19,20-nonanor-4-oxa-4,8-inter-m-phenylene PGI2] | 6.9 | 3.1 | 1100 | 630 | 0.11 | 0.79 (≈ 1.75 nM) |  |  |  |  |  |  |
| O=C(O)COc1cccc2c1O[C@H]1C[C@@H](O)[C@H](/C=C/[C@@H](O)c3ccccc3Cl)[C@@H]21 (relative stereo) [Compound 281, 15-(o-chlorophenyl)-2,5,6,7,16,17,18,19,20-nonanor-4-oxa-4,8-inter-m-phenylene PGI2] | 10 | 2.4 | 500 | 460 | 0.14 | 0.82 (≈ 1.97 nM) |  |  |  |  |  |  |
| O=C(O)COc1cccc2c1O[C@H]1C[C@@H](O)[C@H](/C=C/[C@@H](O)c3cccc(Cl)c3)[C@@H]21 (relative stereo) [Compound 285, 15-(m-chlorophenyl)-2,5,6,7,16,17,18,19,20-nonanor-4-oxa-4,8-inter-m-phenylene PGI2] | 4.1 | 3.5 | 1200 | 880 | 0.055 | 0.23 (≈ 0.552 nM) |  |  |  |  |  |  |
| O=C(O)COc1cccc2c1O[C@H]1C[C@@H](O)[C@H](/C=C/[C@@H](O)c3ccc(Cl)cc3)[C@@H]21 (relative stereo) [Compound 289, 15-(p-chlorophenyl)-2,5,6,7,16,17,18,19,20-nonanor-4-oxa-4,8-inter-m-phenylene PGI2] | 17 | 4 | 970 | 430 | 0.084 | 0.74 (≈ 1.78 nM) |  |  |  |  |  |  |
| CCCOCC(C)(C)[C@H](O)/C=C/[C@@H]1[C@H]2c3cccc(OCC(=O)O)c3O[C@H]2C[C@H]1O (relative stereo) [Compound 309, 16,16-Dimethyl-20a-homo-2,5,6,7-tetranor-4,18-dioxa-4,8-inter-m-phenylene PGI2] | 33 | 7.47 | 2010 | 805 | 0.3 | 72 (≈ 171 nM) |  |  |  |  |  |  |
| CC#CCC(C)[C@H](O)/C=C/[C@@H]1[C@H]2c3cccc(OCC(=O)O)c3O[C@H]2C[C@H]1O (relative stereo) [Compound 321, 16-Methyl-2,5,6,7-tetranor-4-oxa-18,18,19,19-tetradehydro-4,8-inter-m-phenylene PGI2] | 41 | 0.5 | 320 | 120 | 0.22 | 0.33 (≈ 0.854 nM) |  |  |  |  |  |  |
| CCCCC[C@H](O)/C=C/[C@@H]1[C@H]2C/C(=C/CCCC(=O)O)O[C@H]2C[C@H]1O [PGI2, Prostaglandin I2] |  |  |  |  |  |  | only short duration | unstable in vivo | potent | potent | extremely unstable | potent |
